The values that follow come from patent EP4803094A2, “GLP-1/GIP DUAL, GLP-1/GCG DUAL AND GLP-1/GIP/GCG TRIPLE RECEPTOR AGONISTS” (Sun Pharmaceutical Industries Limited, priority 2023, dated 2024).

Marks after values point to notes of the source that are not given here.

What all share (format): in vivo
Test [1] concerns Type 2 diabetes mouse (db/db) model. As to the kind of experiment: Efficacy study in db/db mice (blood glucose, body weight, food consumption). The conditions noted are these: 10 nM/kg s.c. single dose, mean (n=6). The procedure:
The effect of the compounds as described herein on blood glucose, food intake and body weight were studied in mice. This study was performed in Type 2 diabetes mouse (db/db) model. The animals were divided into 9 treatment groups (n=6): a diabetic control group, Compound 12 (10 nM/kg), Compound 13 (10 nM/kg), Compound 26 (10 nM/kg), Compound 14 (10 nM/kg), Compound 15 (10 nM/kg), Compound 21 (10 nM/kg), Compound 22 (10 nM/kg), and Tirzepatide (10 nM/kg). Baseline blood glucose was measured from all the animals. All the animals were administered with test item subcutaneously. Blood glucose was measured at 4 hr, 8 hr, 12 hr, 24 hr, 48 hr, 72 hr, and 96 hr post treatment. Delta blood glucose (mM) was calculated. Body weight changes and cumulative food consumption were measured at 48 hr and 96 hr post treatment. Table 3. Effect on Blood Glucose

Test [2] relates to Rats. As to the kind of experiment: Oral Glucose Tolerance Test (OGTT) in rats, single injection (blood glucose AUC, body weight, food consumption). The following applies: for Food Consumption (g) / Body weight change (%): 30 nM/kg s.c.; for Food Consumption (g): 0-12 hr; for Food Consumption (g) / Body weight change (%) / Blood Glucose AUC(0-120min) Mean: mean (n=4); for Blood Glucose AUC(0-120min) Mean: OGTT 2 g/kg glucose orally, 24 hr post subcutaneous injection of 30 nM/kg; for % Change in Blood glucose AUC(0-120min) vs placebo control: OGTT 24 hr post subcutaneous injection of 30 nM/kg. How it is done: Animals were divided into 6 groups (n=4/group): a placebo control group, Compound 17, (30 nM/kg), Compound 18 (30 nM/kg), Compound 19 (30 nM/kg), Compound 20 (30 nM/kg), and Retatrutide (30 nM/kg). Animals were fasted for 12 hours before initiation of OGTT. After 24 hours of subcutaneous injection of tests or Retatrutide, blood glucose was measured with blood glucometer (time 0 measurement). All the animals were given 2 g/kg of glucose solution orally. Blood glucose was measured at 10, 20, 40, 60, 90, and 120 min following glucose challenge. Body weight and food consumption were recorded at 12 hr, 48 hr and 72 hr.

For test [3], the system named is Rats. The description is as above. The conditions noted are these: 30 nM/kg s.c., mean (n=4); for Body weight change (%): 24 hr.

With `CC[C@H](C)[C@H](NC(=O)[C@H](Cc1ccccc1)NC(=O)[C@H](C)NC(=O)C(C)(C)NC(=O)[C@H](CCC(N)=O)NC(=O)[C@H](C)NC(=O)[C@H](CCCCNC(=O)COCCOCCNC(=O)C(C)(C)NC(=O)CC[C@H](NC(=O)CCCCCCCCCCCCCCCCC(=O)O)C(=O)O)NC(=O)[C@H](CCCCN)NC(=O)[C@H](CC(=O)O)NC(=O)[C@H](CC(C)C)NC(=O)[C@](C)(CC(C)C)NC(=O)[C@@H](NC(=O)[C@H](CO)NC(=O)[C@H](Cc1ccc(O)cc1)NC(=O)[C@H](CC(=O)O)NC(=O)[C@H](CO)NC(=O)[C@@H](NC(=O)[C@H](Cc1ccccc1)NC(=O)[C@@H](NC(=O)CNC(=O)[C@H](CCC(N)=O)NC(=O)C(C)(C)NC(=O)[C@@H](N)Cc1ccc(O)cc1)[C@@H](C)O)[C@@H](C)O)[C@@H](C)CC)C(=O)N[C@@H](CCC(=O)O)C(=O)N[C@@H](Cc1ccc(O)cc1)C(=O)N[C@@H](CC(C)C)C(=O)N[C@@H](CC(C)C)C(=O)N[C@@H](CCC(=O)O)C(=O)NCC(=O)NCC(=O)N1CCC[C@H]1C(=O)N[C@@H](CO)C(=O)N[C@@H](CO)C(=O)NCC(=O)N[C@@H](C)C(=O)N1CCC[C@H]1C(=O)N1CCC[C@H]1C(=O)N1CCC[C@H]1C(=O)N[C@@H](CO)C(N)=O` [Compound 12], the “Cumulative Food Consumption (g) 0-48 hr” value in test [1] is on record as 3.1*** g. For the same compound, the “Cumulative Food Consumption (g) 0-96 hr” value in test [1] is 10.9*** g. Besides, the “Delta Blood Glucose” value in test [1] (4 hr post treatment) is -3.2 mM; in test [1] (96 hr post treatment), -6.4 mM. For the same compound, the “Delta Blood Glucose (mM)” value in test [1] (8 hr post treatment) was -8.9* mM; in test [1] (12 hr post treatment), -13.2*** mM; in test [1] (24 hr post treatment), -13.7*** mM; in test [1] (48 hr post treatment) it was -11.4*** mM; in test [1] (72 hr post treatment) it was -9.2** mM. In addition, in test [1], the “Body Weight Change (%) 48 hr” value was -8.0*** %. Moreover, in test [1], the “Body Weight Change (%) 96 hr” value is -3.7*** %.
With `CCCC[C@H](NC(=O)[C@@H](NC(=O)[C@H](CO)NC(=O)[C@H](Cc1ccc(O)cc1)NC(=O)[C@H](CC(=O)O)NC(=O)[C@H](CO)NC(=O)[C@@H](NC(=O)[C@H](Cc1ccccc1)NC(=O)[C@@H](NC(=O)CNC(=O)[C@H](CCC(N)=O)NC(=O)C(C)(C)NC(=O)[C@@H](N)Cc1ccc(O)cc1)[C@@H](C)O)[C@@H](C)O)[C@@H](C)CC)C(=O)N[C@@H](CC(C)C)C(=O)N[C@@H](CC(=O)O)C(=O)N[C@@H](CCCCN)C(=O)N[C@@H](CCCCNC(=O)COCCOCCNC(=O)C(C)(C)NC(=O)CC[C@H](NC(=O)CCCCCCCCCCCCCCCCCCC(=O)O)C(=O)O)C(=O)N[C@@H](C)C(=O)N[C@@H](CCC(N)=O)C(=O)NC(C)(C)C(=O)N[C@@H](C)C(=O)N[C@@H](Cc1ccccc1)C(=O)N[C@H](C(=O)N[C@@H](CCC(=O)O)C(=O)N[C@@H](Cc1ccc(O)cc1)C(=O)N[C@@H](CC(C)C)C(=O)N[C@@H](CC(C)C)C(=O)N[C@@H](CCC(=O)O)C(=O)NCC(=O)NCC(=O)N1CCC[C@H]1C(=O)N[C@@H](CO)C(=O)N[C@@H](CO)C(=O)NCC(=O)N[C@@H](C)C(=O)N1CCC[C@H]1C(=O)N1CCC[C@H]1C(=O)N1CCC[C@H]1C(=O)N[C@@H](CO)C(N)=O)[C@@H](C)CC` [Compound 14], the “Cumulative Food Consumption (g) 0-48 hr” value in test [1] is 3.0*** g. In test [1], the “Cumulative Food Consumption (g) 0-96 hr” value was 8.3*** g. Moreover, the “Delta Blood Glucose” value in test [1] (4 hr post treatment) is reported as -3.8 mM; in test [1] (8 hr post treatment) it was -3.1 mM; in test [1] (12 hr post treatment) it was -6.2 mM; in test [1] (72 hr post treatment), -7 mM; in test [1] (96 hr post treatment), -2.6 mM. For the same compound, the “Delta Blood Glucose (mM)” value is -9.2** mM in test [1] (24 hr post treatment) and -9.3* mM in test [1] (48 hr post treatment). In addition, the “Body Weight Change (%) 48 hr” value in test [1] is on record as -8.8*** %. The “Body Weight Change (%) 96 hr” value in test [1] was -7.1*** %.
Regarding `CCC[C@H](NC(=O)[C@@H](NC(=O)[C@H](CO)NC(=O)[C@H](Cc1ccc(O)cc1)NC(=O)[C@H](CC(=O)O)NC(=O)[C@H](CO)NC(=O)[C@@H](NC(=O)[C@H](Cc1ccccc1)NC(=O)[C@@H](NC(=O)CNC(=O)[C@H](CCC(N)=O)NC(=O)C(C)(C)NC(=O)[C@@H](N)Cc1ccc(O)cc1)[C@@H](C)O)[C@@H](C)O)[C@@H](C)CC)C(=O)N[C@@H](CC(C)C)C(=O)N[C@@H](CC(=O)O)C(=O)N[C@@H](CCCCN)C(=O)N[C@@H](CCCCNC(=O)COCCOCCNC(=O)C(C)(C)NC(=O)CC[C@H](NC(=O)CCCCCCCCCCCCCCCCCCC(=O)O)C(=O)O)C(=O)N[C@@H](C)C(=O)N[C@@H](CCC(N)=O)C(=O)NC(C)(C)C(=O)N[C@@H](C)C(=O)N[C@@H](Cc1ccccc1)C(=O)N[C@H](C(=O)N[C@@H](CCC(=O)O)C(=O)N[C@@H](Cc1ccc(O)cc1)C(=O)N[C@@H](CC(C)C)C(=O)N[C@@H](CC(C)C)C(=O)N[C@@H](CCC(=O)O)C(=O)NCC(=O)NCC(=O)N1CCC[C@H]1C(=O)N[C@@H](CO)C(=O)N[C@@H](CO)C(=O)NCC(=O)N[C@@H](C)C(=O)N1CCC[C@H]1C(=O)N1CCC[C@H]1C(=O)N1CCC[C@H]1C(=O)N[C@@H](CO)C(N)=O)[C@@H](C)CC` [Compound 17], the “Food Consumption (g)” value in the test on Rats [2] was 1.4*** g; in the test with Rats [3] (24-48 hr), 15.8*** g; in the test on Rats [3] (24-72 hr), 31.3*** g. In addition, the “Body weight change (%)” value was -5.0*** % with Rats [2] (48 hr), -3.3*** % with Rats [2] (72 hr) and -6.8*** % in the test on Rats [3]. Further, the “Blood Glucose AUC(0-120min) Mean” value in the test with Rats [2] is reported as 4771.3***. Also, the “% Change in Blood glucose AUC(0-120min) vs placebo control” value in the test with Rats [2] is -50.67%.
Turning to `CCC[C@H](NC(=O)[C@@H](NC(=O)[C@H](CO)NC(=O)[C@H](Cc1ccc(O)cc1)NC(=O)[C@H](CC(=O)O)NC(=O)[C@H](CO)NC(=O)[C@@H](NC(=O)[C@H](Cc1ccccc1)NC(=O)[C@@H](NC(=O)CNC(=O)[C@H](CCC(N)=O)NC(=O)C(C)(C)NC(=O)[C@@H](N)Cc1ccc(O)cc1)[C@@H](C)O)[C@@H](C)O)[C@@H](C)CC)C(=O)N[C@@H](CC(C)C)C(=O)N[C@@H](CC(=O)O)C(=O)N[C@@H](CCCCN)C(=O)N[C@@H](CCCCNC(=O)COCCOCCNC(=O)COCCOCCNC(=O)CC[C@H](NC(=O)CCCCCCCCCCCCCCCCCCC(=O)O)C(=O)O)C(=O)N[C@@H](C)C(=O)N[C@@H](CCC(N)=O)C(=O)NC(C)(C)C(=O)N[C@@H](C)C(=O)N[C@@H](Cc1ccccc1)C(=O)N[C@H](C(=O)N[C@@H](CCC(=O)O)C(=O)N[C@@H](Cc1ccc(O)cc1)C(=O)N[C@@H](CC(C)C)C(=O)N[C@@H](CC(C)C)C(=O)N[C@@H](CCC(=O)O)C(=O)NCC(=O)NCC(=O)N1CCC[C@H]1C(=O)N[C@@H](CO)C(=O)N[C@@H](CO)C(=O)NCC(=O)N[C@@H](C)C(=O)N1CCC[C@H]1C(=O)N1CCC[C@H]1C(=O)N1CCC[C@H]1C(=O)N[C@@H](CO)C(N)=O)[C@@H](C)CC` [Compound 18], the “Food Consumption (g)” value is reported as 3.0*** g with Rats [2], 5.8*** g in the test on Rats [3] (24-48 hr) and 16.8*** g with Rats [3] (24-72 hr). Moreover, the “Body weight change (%)” value in the test on Rats [2] (48 hr) is on record as -4.6*** %; in the test with Rats [2] (72 hr) it was -2.6*** %; in the test with Rats [3], -6.5*** %. Moreover, in the test with Rats [2], the “Blood Glucose AUC(0-120min) Mean” value is on record as 4176.3***. For the same compound, in the test on Rats [2], the “% Change in Blood glucose AUC(0-120min) vs placebo control” value is -56.82%.
